Structures are written as SMILES. Read-outs that look alike come from different tables or passages of the source. Where only a bound is given, the exact number is not on record here.

The test system of this experiment is HBV. Briefly: HBV-DNA Antiviral Assay Using HepG2.2.15 Cells (extracellular HBV DNA by qPCR). It is filed as cell-based. As to conditions: Hepatitis B virus. The method, then:
The following assay procedure describes the HBV antiviral assay. This assay uses HepG2.2.15 cells, which have been transfected with HBV genome, and extracellular HBV DNA quantification as endpoint. Cell viability is assessed in parallel by measuring the intracellular ATP content using the CellTiter-Glo© reagent from Promega.
On day 0, HepG2.2.15 cells were seeded in 96-well plates at a density of 6.0×10^4 cells/well (0.1 mL/well). The cells were incubated at 37° C. and 5% CO2.
On day 1, the test articles were diluted and added to cell culture wells (8 concentrations, 4-fold dilution, in duplicate). GLS4, Tenofovir and Sorafenib were used as reference compounds. 100 μL of culture medium containing the compounds was added to the plate, and the final total volume per well was 200 μL. The final concentration of DMSO in the culture medium was 0.5%. The plate map of compound treatment is shown below. The cells were cultured at 37° C. and 5% CO2 for 3 days.
On day 4, the plates were refreshed with culture media with compounds.
On day 7, cell viability was assessed using the CellTiter-Glo, and the cell culture supernatants were collected for determination of HBV DNA by qPCR.
Extracellular DNA was isolated with QIAamp 96 DNA Blood Kit per the manufacturer's manual. HBV DNA was then quantified by qPCR with HBV specific primers and probes as specified in Table 1 using the FastStart Universal MasterMix from Roche on an ABI-7900HT. The PCR cycle program consisted of 95° C. for 10 min, followed by 40 cycles at 95° C. for 15 sec and 60° C. for 1 min.
A DNA standard was prepared by dilution of the pAAV2 HBV1.3 plasmid with concentrations ranging from 10 to 1×10^7 copies/μL and used to generate a standard curve by plotting Ct value vs. the concentration of the HBV plasmid DNA standard. The quantity of HBV DNA in each sample was determined by interpolating from the standard curve.
Cell viability was calculated as follows: % Cell viability=(luminescence value of test sample−average luminescence value of blank)/(average luminescence value of 0.5% DMSO control−average luminescence of blank)×100%. HBV DNA inhibition was calculated as follows: 100-(HBV DNA copy number of test sample−HBV DNA copy number of ETV)/HBV DNA copy number of 0.5% DMSO control−HBV DNA copy number of ETV)×100%. The CC50, EC50 and EC90 values were determined by dose-response curves fitted by GraphPad Prism using “log (agonist) vs. response—Variable slope”.

Setting [1] is: 168 h, HBV DNA inhibition, HepG2.2.15 cells, extracellular HBV DNA by qPCR on day 7, read-out: EC50.

As usually defined, the EC50 is the midpoint of the concentration-response curve. For the compound `CC(C)NC(=O)c1c2n(c(=O)n1-c1ccccc1)CCN(C(=O)c1ccc(Br)c(Cl)c1)C2` [Example 12, 7-(4-bromo-3-chlorobenzoyl)-3-oxo-2-phenyl-N-(propan-2-yl)-2H,3H,5H,6H,7H,8H-imidazo[1,5-a]pyrazine-1-carboxamide], under setting [1], the EC50 was above 5000 nM. On the same count and under the same terms, then `C[C@@H](NC(=O)c1c2n(c(=O)n1-c1ccc(-n3cccn3)cc1)C[C@H](C)N(C(=O)c1ccc(Br)c(Cl)c1)C2)c1ccccc1` (mixture of isomers) [Example 467, (6SR)-7-(4-bromo-3-chloro-benzoyl)-6-methyl-3-oxo-N-[(1R)-1-phenylethyl]-2-(4-pyrazol-1-ylphenyl)-6,8-dihydro-5H-imidazo[1,5-a]pyrazine-1-carboxamide], with 100 to 500 nM; and `O=C1NCCCn2c1c1n(c2=O)CCN(C(=O)c2ccc(Br)c(Cl)c2)C1` [Example 7, 2-(4-bromo-3-chlorobenzoyl)-1,2,3,4,8,9,10,11-octahydro-6H,12H-pyrazino[1′,2′:3,4]imidazo[1,5-a][1,4]diazepine-6,12-dione], with above 5000 nM. Turning to `Cc1cccnc1-c1ccccc1CNC(=O)c1c2n(c(=O)n1-c1ccc(OC3CC3)cc1)CCN(C(=O)c1ccc(Br)c(Cl)c1)C2` [Example 464, 7-(4-bromo-3-chloro-benzoyl)-2-[4-(cyclopropoxy)phenyl]-N-[[2-(3-methyl-2-pyridyl)phenyl]methyl]-3-oxo-6,8-dihydro-5H-imidazo[1,5-a]pyrazine-1-carboxamide], the EC50 under setting [1] lay in the range of 500 to 5000 nM. Turning to `C[C@H]1Cn2c(c(C(=O)NCc3ccccc3-c3ncccn3)n(-c3ccc(-n4cccn4)cc3)c2=O)CN1C(=O)c1ccc(Br)c(C#N)c1` (stereo in doubt) [Example 471, rac-(6S)-7-(4-bromo-3-cyano-benzoyl)-6-methyl-3-oxo-2-(4-pyrazol-1-ylphenyl)-N-[(2-pyrimidin-2-ylphenyl)methyl]-6,8-dihydro-5H-imidazo[1,5-a]pyrazine-1-carboxamide], the EC50 under setting [1] was in the range of 500 to 5000 nM. On to `C[C@@H]1Cn2c(c(C(=O)N[C@H](C)c3ccccc3)n(-c3ccc(-n4cccn4)cc3)c2=O)CN1C(=O)c1ccc(Br)c(Cl)c1` (mixture of isomers) [Example 466, (6RS)-7-(4-bromo-3-chloro-benzoyl)-6-methyl-3-oxo-N-[(1R)-1-phenylethyl]-2-(4-pyrazol-1-ylphenyl)-6,8-dihydro-5H-imidazo[1,5-a]pyrazine-1-carboxamide], for which the EC50 under setting [1] lay within 500 to 5000 nM. As for `C[C@@H]1Cn2c(c(C(=O)NCc3ccccc3-c3ncccn3)n(-c3ccc(-n4cccn4)cc3)c2=O)CN1C(=O)c1ccc(Br)c(C#N)c1` (stereo in doubt) [Example 470, rac-(6R)-7-(4-bromo-3-cyano-benzoyl)-6-methyl-3-oxo-2-(4-pyrazol-1-ylphenyl)-N-[(2-pyrimidinn-2-ylphenyl)methyl]-6,8-dihydro-5H-imidazo[1,5-a]yrazine-1-carboxamide], the EC50 under setting [1] is 100 to 500 nM. Same read-out and setting: then `O=C1NCCCn2c1c1n(c2=O)CCN(C(=O)c2ccc(Br)cc2)C1` [Example 5, 4-(4-bromobenzoyl)-4,7,9,13-tetraazatricyclo[7.5.0.0^[2,7]]tetradec-1-ene-8,14-dione], with above 5000 nM.

As for `COc1ccc(CN2CCn3c(c4n(c3=O)CCN(C(=O)c3ccc(Br)c(Cl)c3)C4)C2=O)cc1` [Example 19, 12-(4-bromo-3-chloro-benzoyl)-4-[(4-methoxyphenyl)methyl]-4,7,9,12-tetrazatricyclo[7.4.0.0^2,7]tridec-1-ene-3,8-dione], under setting [1], the EC50 was above 5000 nM. The same measure, in the same setting: as for `O=C(NCc1ccccc1-c1nccnn1)c1c2n(c(=O)n1-c1ccc(OC3CC3)cc1)CCN(C(=O)c1ccc(Br)c(Cl)c1)C2` [Example 463, 7-(4-bromo-3-chloro-benzoyl)-2-[4-(cyclopropoxy)phenyl]-3-oxo-N-[[2-(1,2,4-triazin-3-yl)phenyl]methyl]-6,8-dihydro-5H-imidazo[1,5-a]pyrazine-1-carboxamide], the figure is 100 to 500 nM; as for `CC1Cn2c(c(C(=O)NCc3ccccc3-c3ncccn3)n(-c3ccc(-n4cccn4)cc3)c2=O)CN1C(=O)c1ccc(Br)c(Cl)c1` (racemic) [Example 468, rac-(6R)-7-(4-bromo-3-chloro-benzoyl)-6-methyl-3-oxo-2-(4-pyrazol-1-ylphenyl)-N-[(2-pyrimidin-2-ylphenyl)methyl]-6,8-dihydro-5H-imidazo[1,5-a]pyrazine-1-carboxamide], 100 to 500 nM. Still for that read-out and setting: then `CN1CCCn2c(c3n(c2=O)CCN(C(=O)c2ccc(Br)c(Cl)c2)C3)C1=O` [Example 8, 2-(4-bromo-3-chlorobenzoyl)-11-methyl-1,2,3,4,8,9,10,11-octahydro-6H,12H-pyrazino[1′,2′:3,4]imidazo[1,5-a][1,4]diazepine-6,12-dione], with above 5000 nM; and `COc1ccc(CNC(=O)c2c3n(c(=O)n2-c2ccccc2)CCN(C(=O)Nc2ccc(F)c(Cl)c2)C3)cc1` [Example 11, N^7-(3-chloro-4-fluorophenyl)-N1-[(4-methoxyphenyl)methyl]-3-oxo-2-phenyl-2H,3H,5H,6H,7H,8H-imidazo[1,5-a]pyrazine-1,7-dicarboxamide], with 100 to 500 nM. Under “HepG2.2.15, 168 h”, `O=C(Nc1ccc(F)c(Cl)c1)N1CCn2c(c3n(c2=O)CCCN(Cc2ccccc2)C3=O)C1` [Example 3, 11-benzyl-N-(3-chloro-4-fluorophenyl)-6,12-dioxo-1,3,4,8,9,10,11,12-octahydro-2H,6H-pyrazino[1′,2′:3,4]imidazo[1,5-a][1,4]diazepine-2-carboxamide] came in with an EC50 of 100 to 500 nM. On to `C[C@@H](NC(=O)c1c2n(c(=O)n1-c1ccc(OC3CC3)cc1)CCN(C(=O)c1ccc(Br)c(Cl)c1)C2)c1ccccc1-n1cncn1` (stereo in doubt) [Example 472, 7-(4-bromo-3-chloro-benozyl)-2-[4-(cyclopropoxy)phenyl]-3-oxo-N-[rac-(1R)-1-[2-(1,2,4-triazol-1-yl)phenyl]ethyl]-6,8-dihydro-5H-imidazo[1,5-a]pyrazine-1-carboxamide], for which the EC50 under setting [1] is 500 to 5000 nM. On the same count and under the same terms, as for `CC(C)NC(=O)c1c2n(c(=O)n1-c1ccccc1)CCN(C(=O)Nc1ccc(F)c(Cl)c1)C2` [Example 10, N^7-(3-chloro-4-fluorophenyl)-3-oxo-2-phenyl-N1-(propan-2-yl)-2H,3H,5H,6H,7H,8H-imidazo[1,5-a]pyrazine-1,7-dicarboxamide], the figure is 500 to 5000 nM; as for `C[C@H](NC(=O)c1c2n(c(=O)n1-c1ccc(OC3CC3)cc1)CCN(C(=O)c1ccc(Br)c(Cl)c1)C2)c1ccccc1-n1cncn1` (stereo in doubt) [Example 473, 7-(4-bromo-3-chloro-benzoyl)-2-[4-(cyclopropoxy)phenyl]-3-oxo-N-[rac-(1S)-1-[2-(1,2,4-triazol-1-yl)phenyl]ethyl]-6,8-dihydro-5H-imidazo[1,5-a]pyrazine-1-carboxamide], above 5000 nM.

Take `COc1ccc(CNC(=O)c2c3n(c(=O)n2Cc2ccccc2)CCN(C(=O)c2ccc(Br)c(Cl)c2)C3)cc1` [Example 14, 2-benzyl-7-(4-bromo-3-chlorobenzoyl)-N-[(4-methoxyphenyl)methyl]-3-oxo-2H,3H,5H,6H,7H,8H-imidazo[1,5-a]pyrazine-1-carboxamide]: the EC50 under setting [1] is above 5000 nM. In the case of `COc1ccc(CN2CCn3c(c4n(c3=O)CCN(C(=O)Nc3ccc(F)c(Cl)c3)C4)C2=O)cc1` [Example 17, N-(3-chloro-4-fluoro-phenyl)-12-[(4-methoxyphenyl)methyl]-8,13-dioxo-4,7,9,12-tetrazatricyclo[7.4.0.0^2,7]tridec-1-ene-4-carboxamide], the EC50 under setting [1] is above 5000 nM.

For the compound `COc1ccc(CN2CCn3c(c4n(c3=O)CCN(C(=O)c3ccc(Br)cc3)C4)C2=O)cc1` [Example 20, 12-(4-bromobenzoyl)-4-[(4-methoxyphenyl)methyl]-4,7,9,12-tetrazatricyclo[7.4.0.0^2,7]tridec-1-ene-3,8-dione], the EC50 under setting [1] was above 5000 nM. In the case of `COc1ccc(CN2CCCn3c(c4n(c3=O)CCN(C(=O)c3ccc(Br)c(Cl)c3)C4)C2=O)cc1` [Example 9, 2-(4-bromo-3-chlorobenzoyl)-11-(4-methoxybenzyl)-1,2,3,4,8,9,10,11-octahydro-6H,12H-pyrazino[1′,2′:3,4]imidazo[1,5-a][1,4]diazepine-6,12-dione], the EC50 under setting [1] was 100 to 500 nM.

With `CN1CCCn2c(c3n(c2=O)CCN(C(=O)Nc2ccc(F)c(Cl)c2)C3)C1=O` [Example 2, N-(3-chloro-4-fluorophenyl)-11-methyl-6,12-dioxo-1,3,4,8,9,10,11,12-octahydro-2H,6H-pyrazino[1′,2′:3,4]imidazo[1,5-a][1,4]diazepine-2-carboxamide], under setting [1], the EC50 lay within 500 to 5000 nM.
